In ChEMBL document CHEMBL6096703 (J Med Chem, 2025):
Active and inactive are the calls of the source. The rule behind the calls is not given here.

How the values were obtained:
[1] = Sub-acute toxicity in Kunming mouse assessed as change ASTL level at 100 to 300 mg/kg administered via gavage for 14 days; assay type: organism-based; conditions: in vivo, po, 336 h, dose 100-300 mg/kg, time 14 day
[2] = Sub-acute toxicity in Kunming mouse assessed as change ALB2 level at 100 to 300 mg/kg administered via gavage for 14 days; assay type: organism-based; conditions: in vivo, po, 336 h, dose 100-300 mg/kg, time 14 day
[3] = AUC(0 to t) in male Balb/c mouse at 1 mg/kg, po measured upto 96 hrs by LC-MS/MS analysis; assay type: ADME, organism-based; conditions: male, Balb/c, in vivo
[4] = Tmax in male Balb/c mouse at 1 mg/kg, iv measured upto 96 hrs by LC-MS/MS analysis; assay type: ADME, organism-based; conditions: in vivo
[5] = Cmax in male Balb/c mouse at 1 mg/kg, iv measured upto 96 hrs by LC-MS/MS analysis; assay type: ADME, organism-based; conditions: in vivo
[6] = Sub-acute toxicity in Kunming mouse assessed as change LDH2 level at 100 to 300 mg/kg administered via gavage for 14 days; assay type: organism-based; conditions: in vivo, po, 336 h, dose 100-300 mg/kg, time 14 day
[7] = Clearance in male Balb/c mouse at 1 mg/kg, po measured upto 96 hrs by LC-MS/MS analysis; assay type: ADME, organism-based; conditions: male, Balb/c, in vivo
MDA-MB-436 [8] = experiment: Antitumor activity against human MDA-MB-436 cells xenografted in female NOD/SCID mouse assessed as tumor regression rate at 1 mg/kg, po administered once every other day for 28 days relative to control; assay type: functional; conditions: time 28.0 day
[9] = Acute toxicity in Kunming mouse assessed as change in cellular morphology of kidney at 100 mg/kg administered once a day via gavage for 14 days by H and E staining based analysis; assay type: organism-based; conditions: in vivo, po, 336 h, time 14 day
[10] = Sub-acute toxicity in Kunming mouse assessed as change CK level at 30 to 100 mg/kg administered via gavage once a day for 14 days; assay type: organism-based; conditions: in vivo, po, 336 h, dose 30-100 mg/kg, time 14 day
[11] = Sub-acute toxicity in Kunming mouse assessed as change UREAL level at 100 to 300 mg/kg administered via gavage for 14 days; assay type: organism-based; conditions: in vivo, po, 336 h, dose 100-300 mg/kg, time 14 day
[12] = Apparent volume of distribution in male Balb/c mouse at 1 mg/kg, po measured upto 96 hrs by LC-MS/MS analysis; assay type: ADME, organism-based; conditions: in vivo
[13] = Acute toxicity in Kunming mouse assessed as change in spleen structure at 300 mg/kg administered via gavage for 14 days by H and E staining based analysis; assay type: organism-based; conditions: in vivo, po, 336 h, time 14 day
[14] = Drug concentration in blood of male Balb/c mouse at 10 mg/kg, po measured at 1 hr postdose; assay type: ADME, organism-based; conditions: read-out: Ct
[15] = Acute toxicity in Kunming mouse assessed as change in cellular morphology of liver at 100 mg/kg administered once a day via gavage for 14 days by H and E staining based analysis; assay type: organism-based; conditions: in vivo, po, 336 h, time 14 day
[16] = Acute toxicity in Kunming mouse assessed as change in cellular morphology of spleen at 100 mg/kg administered once a day via gavage for 14 days by H and E staining based analysis; assay type: organism-based; conditions: in vivo, po, 336 h, time 14 day
[17] = Acute toxicity in Kunming mouse assessed as change in kidney structure at 300 mg/kg administered via gavage for 14 days by H and E staining based analysis; assay type: organism-based; conditions: in vivo, po, 336 h, time 14 day
[18] = Sub-acute toxicity in Kunming mouse assessed as change ASTL level at 30 to 100 mg/kg administered via gavage once a day for 14 days; assay type: organism-based; conditions: in vivo, po, 336 h, dose 30-100 mg/kg, time 14 day
[19] = Sub-acute toxicity in Kunming mouse assessed as change CREA2 level at 100 to 300 mg/kg administered via gavage for 14 days; assay type: organism-based; conditions: in vivo, po, 336 h, dose 100-300 mg/kg, time 14 day
[20] = Sub-acute toxicity in Kunming mouse assessed as change CREA2 level at 30 to 100 mg/kg administered via gavage once a day for 14 days; assay type: organism-based; conditions: in vivo, po, 336 h, dose 30-100 mg/kg, time 14 day
[21] = Drug concentration in blood of male Balb/c mouse at 10 mg/kg, po measured at 6 hr postdose; assay type: ADME, organism-based; conditions: read-out: Ct
[22] = Acute toxicity in Kunming mouse assessed as change in cellular morphology of lung at 100 mg/kg administered once a day via gavage for 14 days by H and E staining based analysis; assay type: organism-based; conditions: in vivo, po, 336 h, time 14 day
[23] = Sub-acute toxicity in Kunming mouse assessed as change ALTL level at 100 to 300 mg/kg administered via gavage for 14 days; assay type: organism-based; conditions: in vivo, po, 336 h, dose 100-300 mg/kg, time 14 day
[24] = target: Poly [ADP-ribose] polymerase 1 (Homo sapiens, UniProt P09874); experiment: Inhibition of PARP1 (unknown origin) at 1 nM preincubated with compound for 10 mins followed by DNA and NAD+ addition and measured after 60 mins by chemiluminescence based envision reader analysis relative to control; conditions: time 70.0 min
Poly [ADP-ribose] polymerase 1, sequence (P09874 whole entry): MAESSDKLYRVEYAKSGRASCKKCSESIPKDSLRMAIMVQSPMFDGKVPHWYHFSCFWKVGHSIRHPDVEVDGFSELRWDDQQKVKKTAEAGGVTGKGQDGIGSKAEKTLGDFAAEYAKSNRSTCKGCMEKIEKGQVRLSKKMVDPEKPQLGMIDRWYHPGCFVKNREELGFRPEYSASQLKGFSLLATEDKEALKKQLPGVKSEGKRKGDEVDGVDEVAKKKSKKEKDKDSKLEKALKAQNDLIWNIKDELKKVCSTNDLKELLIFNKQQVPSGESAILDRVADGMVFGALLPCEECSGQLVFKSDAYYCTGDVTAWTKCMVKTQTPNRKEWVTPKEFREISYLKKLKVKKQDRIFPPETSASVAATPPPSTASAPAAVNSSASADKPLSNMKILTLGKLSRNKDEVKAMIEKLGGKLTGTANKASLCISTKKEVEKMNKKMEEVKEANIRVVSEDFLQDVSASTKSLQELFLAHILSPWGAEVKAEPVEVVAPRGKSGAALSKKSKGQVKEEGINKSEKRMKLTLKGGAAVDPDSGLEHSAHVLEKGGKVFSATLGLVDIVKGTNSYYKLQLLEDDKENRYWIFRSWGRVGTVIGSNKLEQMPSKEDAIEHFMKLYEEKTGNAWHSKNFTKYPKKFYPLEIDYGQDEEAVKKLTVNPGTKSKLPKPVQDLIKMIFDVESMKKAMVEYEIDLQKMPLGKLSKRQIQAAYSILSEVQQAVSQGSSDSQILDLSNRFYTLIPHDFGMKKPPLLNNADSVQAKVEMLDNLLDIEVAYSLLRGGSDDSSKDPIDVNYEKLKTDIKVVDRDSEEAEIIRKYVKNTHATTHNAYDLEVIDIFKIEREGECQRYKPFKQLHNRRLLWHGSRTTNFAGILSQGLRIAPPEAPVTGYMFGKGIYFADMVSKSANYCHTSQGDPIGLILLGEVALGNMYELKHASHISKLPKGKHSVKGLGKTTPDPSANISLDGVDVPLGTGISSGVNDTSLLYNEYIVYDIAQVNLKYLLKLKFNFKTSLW

[25] = Sub-acute toxicity in Kunming mouse assessed as change ALTL level at 30 to 100 mg/kg administered via gavage once a day for 14 days; assay type: organism-based; conditions: in vivo, po, 336 h, dose 30-100 mg/kg, time 14 day
[26] = Acute toxicity in Kunming mouse assessed as change in liver structure at 300 mg/kg administered via gavage for 14 days by H and E staining based analysis; assay type: organism-based; conditions: in vivo, po, 336 h, time 14 day
[27] = Acute toxicity in Kunming mouse assessed as change in heart structure at 300 mg/kg administered via gavage for 14 days by H and E staining based analysis; assay type: organism-based; conditions: in vivo, po, 336 h, time 14 day
[28] = AUC(0 to t) in male Balb/c mouse at 1 mg/kg, iv measured upto 96 hrs by LC-MS/MS analysis; assay type: ADME, organism-based; conditions: male, Balb/c, in vivo
MDA-MB-436 [29] = experiment: Antiproliferative activity against human MDA-MB-436 cells assessed as reduction in cell viability incubated for 7 days by CCK-8 assay; assay type: functional, cell-based; conditions: MDA-MB-436, 168 h
[30] = target: Poly [ADP-ribose] polymerase 2 (Homo sapiens, UniProt Q9UGN5); experiment: Inhibition of PARP2 (unknown origin) at 1 uM preincubated with compound for 10 mins followed by DNA and NAD+ addition and measured after 60 mins by chemiluminescence based envision reader analysis relative to control; conditions: time 70.0 min
Poly [ADP-ribose] polymerase 2, sequence (Q9UGN5 whole entry): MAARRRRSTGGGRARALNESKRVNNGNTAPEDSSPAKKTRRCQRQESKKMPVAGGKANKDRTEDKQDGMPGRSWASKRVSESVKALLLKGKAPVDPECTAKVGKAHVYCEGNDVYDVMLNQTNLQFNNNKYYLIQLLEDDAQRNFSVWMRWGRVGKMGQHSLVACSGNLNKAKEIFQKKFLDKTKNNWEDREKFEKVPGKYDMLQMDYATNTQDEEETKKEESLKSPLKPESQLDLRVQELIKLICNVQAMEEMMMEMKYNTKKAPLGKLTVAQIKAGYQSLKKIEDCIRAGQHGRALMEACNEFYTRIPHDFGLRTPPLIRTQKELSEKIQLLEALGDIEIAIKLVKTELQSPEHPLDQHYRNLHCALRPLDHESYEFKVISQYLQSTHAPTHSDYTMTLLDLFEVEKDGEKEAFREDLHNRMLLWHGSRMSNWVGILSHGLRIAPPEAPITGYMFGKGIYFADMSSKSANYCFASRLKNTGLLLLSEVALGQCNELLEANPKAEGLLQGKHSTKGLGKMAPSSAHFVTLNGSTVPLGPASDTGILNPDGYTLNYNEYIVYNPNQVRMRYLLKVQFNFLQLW

[31] = Half life in male Balb/c mouse at 1 mg/kg, iv measured upto 96 hrs by LC-MS/MS analysis; assay type: ADME, organism-based; conditions: male, Balb/c, in vivo
[32] = Drug concentration in brain of male Balb/c mouse at 10 mg/kg, po measured at 6 hr postdose; assay type: ADME, organism-based; conditions: read-out: Ct
[33] = Sub-acute toxicity in Kunming mouse assessed as change UREAL level at 30 to 100 mg/kg administered via gavage once a day for 14 days; assay type: organism-based; conditions: in vivo, po, 336 h, dose 30-100 mg/kg, time 14 day
[34] = Tmax in male Balb/c mouse at 1 mg/kg, po measured upto 96 hrs by LC-MS/MS analysis; assay type: ADME, organism-based; conditions: in vivo
[35] = Sub-acute toxicity in Kunming mouse assessed as change ALB2 level at 30 to 100 mg/kg administered via gavage once a day for 14 days; assay type: organism-based; conditions: in vivo, po, 336 h, dose 30-100 mg/kg, time 14 day
[36] = Half life in male Balb/c mouse at 1 mg/kg, po measured upto 96 hrs by LC-MS/MS analysis; assay type: ADME, organism-based; conditions: male, Balb/c, in vivo
MDA-MB-436 [37] = experiment: Antitumor activity against luciferase tagged human MDA-MB-436 cells xenografted in female NOD-SCID mouse assessed as median survival time at 3 mg/kg, po administered once a day for 34 days; assay type: functional; conditions: time 34 day
[38] = Cmax in male Balb/c mouse at 1 mg/kg, po measured upto 96 hrs by LC-MS/MS analysis; assay type: ADME, organism-based; conditions: in vivo
[39] = Apparent volume of distribution in male Balb/c mouse at 1 mg/kg, iv measured upto 96 hrs by LC-MS/MS analysis; assay type: ADME, organism-based; conditions: male, Balb/c, in vivo, read-out: Vz
[40] = Sub-acute toxicity in Kunming mouse assessed as change CK level at 100 to 300 mg/kg administered via gavage for 14 days; assay type: organism-based; conditions: in vivo, po, 336 h, dose 100-300 mg/kg, time 14 day
[41] = Drug concentration in brain of male Balb/c mouse at 10 mg/kg, po measured at 1 hr postdose; assay type: ADME, organism-based; conditions: read-out: Ct
[42] = Acute toxicity in Kunming mouse assessed as change in cellular morphology of heart at 100 mg/kg administered once a day via gavage for 14 days by H and E staining based analysis; assay type: organism-based; conditions: in vivo, po, 336 h, time 14 day
[43] = Clearance in male Balb/c mouse at 1 mg/kg, iv measured upto 96 hrs by LC-MS/MS analysis; assay type: ADME, organism-based; conditions: male, Balb/c, in vivo
[44] = Sub-acute toxicity in Kunming mouse assessed as change LDH2 level at 30 to 100 mg/kg administered via gavage once a day for 14 days; assay type: organism-based; conditions: in vivo, po, 336 h, dose 30-100 mg/kg, time 14 day
[45] = Oral bioavailability in male Balb/c mouse at 1 mg/kg measured upto 96 hrs by LC-MS/MS analysis; assay type: ADME, organism-based; conditions: in vivo
[46] = Acute toxicity in Kunming mouse assessed as change in lung structure at 300 mg/kg administered via gavage for 14 days by H and E staining based analysis; assay type: organism-based; conditions: in vivo, po, 336 h, time 14 day

CNC(=O)c1ccc(N2CCN(Cc3ccc4nc(C)c(=O)[nH]c4c3F)CC2)c(F)n1 [AZD-9574]
Activity [1]: Non-toxic | Activity [2]: Non-toxic | AUC(0-t) at 96 h [3]: 4180 ng·h/mL | Tmax [4]: 4.8 min | Cmax [5]: 941 ng/mL | Activity [6]: Non-toxic | CL/F [7]: 4 mL/min/kg | Activity (MDA-MB-436 [8]): inactive | Activity [9]: Non-toxic | Activity [10]: Non-toxic | Activity [11]: Non-toxic | Vz [12]: 3.03 L/kg | Activity [13]: Non-toxic | concentration at 1 h [14]: 3780 ng/mL | Activity [15]: Non-toxic | Activity [16]: Non-toxic | Activity [17]: Non-toxic | Activity [18]: Non-toxic | Activity [19]: Non-toxic | Activity [20]: Non-toxic | concentration at 6 h [21]: 186 ng/mL | Activity [22]: Non-toxic | Activity [23]: Non-toxic | inhibition [24]: 63.7% | Activity [25]: Non-toxic | Activity [26]: Non-toxic | Activity [27]: Non-toxic | AUC(0-t) at 96 h [28]: 4890 ng·h/mL | IC50 (MDA-MB-436 [29]): 6.7 nM | inhibition [30]: 38.1% | half-life [31]: 14.7 h | concentration at 6 h [32]: 48 ng/g | Activity [33]: Non-toxic | Tmax [34]: 0.33 h | Activity [35]: Non-toxic | half-life [36]: 8.81 h | Survival (MDA-MB-436 [37]): >65 days | Cmax [38]: 594 ng/mL | Vd [39]: 3.64 L/kg | Activity [40]: Non-toxic | concentration at 1 h [41]: 412 ng/g | Activity [42]: Non-toxic | clearance [43]: 3.17 mL/min/kg | Activity [44]: Non-toxic | bioavailability [45]: 85.5% | Activity [46]: Non-toxic
